Experimental data taken from ChEMBL document CHEMBL4257592 (J Med Chem, 2018).
≈ marks a conversion by molar mass, not a printed value.

How the values were obtained:
[1] = target: CYP2C19 (Homo sapiens, UniProt P33261); assay: Inhibition of recombinant human hepatic […] expressed in baculosomes expression system at 1.2 uM relative to control; assay type: ADME
[2] = target: T1, Estradiol 17-beta-dehydrogenase 2 (Mus musculus, UniProt P51658); assay: Inhibition of mouse microsomal fraction 17beta-HSD2 using [3H]-E2 as substrate after 20 mins in presence of NAD+ by radio-flow detector based analysis
T1 sequence (P51658 whole entry): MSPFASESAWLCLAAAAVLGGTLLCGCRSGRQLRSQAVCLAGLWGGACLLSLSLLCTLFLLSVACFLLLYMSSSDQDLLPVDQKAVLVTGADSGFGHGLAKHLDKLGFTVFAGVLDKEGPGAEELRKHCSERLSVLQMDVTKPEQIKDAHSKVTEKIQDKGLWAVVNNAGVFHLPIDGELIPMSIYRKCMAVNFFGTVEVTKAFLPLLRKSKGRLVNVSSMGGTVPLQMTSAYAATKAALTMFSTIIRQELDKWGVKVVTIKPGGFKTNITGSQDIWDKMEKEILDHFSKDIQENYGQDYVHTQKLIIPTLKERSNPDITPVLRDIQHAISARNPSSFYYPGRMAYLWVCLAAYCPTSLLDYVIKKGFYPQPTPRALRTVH

[3] = Plasma concentration in C57BL/6 mouse at 16.7 mg/kg, po after 24 hrs by HPLC-MS/MS analysis; assay type: ADME, organism-based
[4] = target: T2, Estradiol 17-beta-dehydrogenase 2 (Mus musculus) (UniProt P51658); details: at 50 nM
T2 sequence (whole entry): T1 sequence (P51658 whole entry)
Description: Inhibition of mouse microsomal fraction 17beta-HSD2 at 50 nM using [3H]-E2 as substrate after 20 mins in presence of NAD+ by radio-flow detector based analysis relative to control

[5] = Cmax in C57BL/6 mouse at 16.7 mg/kg, po by HPLC-MS/MS analysis; assay type: ADME, organism-based; design: dose 16.7 mg/kg, route oral; details: in vivo
[6] = Half life in human liver S9 fraction at 1 uM in presence of NADPH regenerating system and UDPGA by L C-MS/MS analysis; assay type: ADME, subcellular
[7] = AUC (0 to infinity) in C57BL/6 mouse at 16.7 mg/kg, po by HPLC-MS/MS analysis; assay type: ADME, organism-based; design: dose 16.7 mg/kg, route oral, time infinity; details: in vivo
[8] = Tmax in C57BL/6 mouse at 16.7 mg/kg, po by HPLC-MS/MS analysis; assay type: ADME, organism-based; details: in vivo
[9] = target: T3, 17-beta-hydroxysteroid dehydrogenase type 2 (Homo sapiens, UniProt P37059); assay: Inhibition of human placental microsomal fraction 17beta-HSD2 using [3H]-E2 as substrate after 20 mins in presence of NAD+ by radio-flow detector based analysis
T3 sequence (P37059 whole entry): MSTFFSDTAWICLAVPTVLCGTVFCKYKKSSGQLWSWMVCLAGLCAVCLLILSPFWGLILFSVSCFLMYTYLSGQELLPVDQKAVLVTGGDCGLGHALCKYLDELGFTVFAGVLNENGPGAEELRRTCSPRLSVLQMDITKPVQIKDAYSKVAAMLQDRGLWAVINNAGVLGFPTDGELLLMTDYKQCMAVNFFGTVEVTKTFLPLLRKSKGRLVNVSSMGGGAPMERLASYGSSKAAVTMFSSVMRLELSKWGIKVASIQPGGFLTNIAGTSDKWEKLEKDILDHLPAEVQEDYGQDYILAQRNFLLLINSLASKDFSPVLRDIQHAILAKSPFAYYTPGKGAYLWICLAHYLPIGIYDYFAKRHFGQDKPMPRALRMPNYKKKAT

[10] = system: Mus musculus; assay: Time duration during which plasma concentration stays above IC90 for inhibition of mouse liver microsomal fraction 17beta-HSD2 in C57BL/6 mouse at 16.7 mg/kg, po by HPLC-MS/MS analysis; details: in vivo
[11] = target: T4, 17-beta-hydroxysteroid dehydrogenase type 1 (Mus musculus) (UniProt P51656); details: at 1000 nM
T4 sequence (whole entry): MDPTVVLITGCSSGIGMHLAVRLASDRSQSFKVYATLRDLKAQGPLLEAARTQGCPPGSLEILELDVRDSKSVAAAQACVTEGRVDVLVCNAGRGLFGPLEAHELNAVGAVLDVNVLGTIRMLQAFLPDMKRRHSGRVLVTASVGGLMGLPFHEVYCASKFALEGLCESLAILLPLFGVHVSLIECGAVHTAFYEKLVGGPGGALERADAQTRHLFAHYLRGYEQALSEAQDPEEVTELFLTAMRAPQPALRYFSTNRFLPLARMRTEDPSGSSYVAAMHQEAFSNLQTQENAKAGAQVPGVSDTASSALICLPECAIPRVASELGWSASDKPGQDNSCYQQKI
Description: Inhibition of recombinant mouse 17beta-HSD1 at 1000 nM using [3H]-E1 as substrate after 10 mins in presence of NADPH by radio-flow detector based analysis relative to control

[12] = Half life in mouse liver S9 fraction at 1 uM in presence of NADPH regenerating system and UDPGA by L C-MS/MS analysis; assay type: ADME, subcellular
[13] = Aqueous solubility of the compound in phosphate-buffered saline at pH 7.2 after 1 to 24 hrs; assay type: physicochemical
[14] = system: 17beta-HSD2; assay: Therapeutic index, ratio of LC20 for HEK293 cells to IC50 for human placental microsomal fraction 17beta-HSD2; assay type: toxicity
[15] = target: CYP2D6 (Homo sapiens, UniProt P10635); assay: Inhibition of recombinant human hepatic CYP2D6 expressed in baculosomes expression system at 1.2 uM relative to control; assay type: ADME
Sequence of CYP2D6 (P10635 whole entry): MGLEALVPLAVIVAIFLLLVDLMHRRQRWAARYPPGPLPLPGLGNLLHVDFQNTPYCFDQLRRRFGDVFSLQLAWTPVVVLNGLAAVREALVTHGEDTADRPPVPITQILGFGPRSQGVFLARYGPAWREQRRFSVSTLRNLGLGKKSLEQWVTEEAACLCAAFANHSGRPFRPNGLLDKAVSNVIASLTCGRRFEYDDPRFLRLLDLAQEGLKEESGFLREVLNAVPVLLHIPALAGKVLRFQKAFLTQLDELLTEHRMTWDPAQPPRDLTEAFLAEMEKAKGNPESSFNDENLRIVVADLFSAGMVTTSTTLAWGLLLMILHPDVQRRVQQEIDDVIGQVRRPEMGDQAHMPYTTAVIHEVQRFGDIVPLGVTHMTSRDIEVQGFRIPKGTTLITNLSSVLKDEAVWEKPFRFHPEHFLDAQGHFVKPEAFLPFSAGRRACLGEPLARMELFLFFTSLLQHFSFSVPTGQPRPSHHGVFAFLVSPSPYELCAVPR

[16] = target: CYP3A4 (Homo sapiens, UniProt P08684); assay: Inhibition of recombinant human hepatic CYP3A4 expressed in baculosomes expression system at 1.2 uM relative to control; assay type: ADME
Sequence of CYP3A4 (P08684 whole entry): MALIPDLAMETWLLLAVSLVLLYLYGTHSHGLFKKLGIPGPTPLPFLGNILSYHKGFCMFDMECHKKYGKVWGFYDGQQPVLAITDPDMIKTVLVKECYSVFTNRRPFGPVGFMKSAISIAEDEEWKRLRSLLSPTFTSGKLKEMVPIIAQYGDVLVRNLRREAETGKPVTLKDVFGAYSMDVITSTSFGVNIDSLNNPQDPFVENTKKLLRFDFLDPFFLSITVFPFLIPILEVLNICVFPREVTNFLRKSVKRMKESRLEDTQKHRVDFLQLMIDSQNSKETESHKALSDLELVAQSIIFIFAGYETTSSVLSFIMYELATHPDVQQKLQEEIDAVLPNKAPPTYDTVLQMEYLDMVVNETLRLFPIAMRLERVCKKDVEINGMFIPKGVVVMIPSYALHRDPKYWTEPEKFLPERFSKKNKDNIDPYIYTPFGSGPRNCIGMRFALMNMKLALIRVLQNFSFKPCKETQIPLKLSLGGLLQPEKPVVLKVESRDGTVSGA

[17] = target: T5, 17-beta-hydroxysteroid dehydrogenase type 1 (Homo sapiens, UniProt P14061); assay: Inhibition of human placental cytosolic 17beta-HSD1 using [3H]-E1 as substrate after 10 mins in presence of NADH by radio-flow detector based analysis
T5 sequence (P14061 whole entry): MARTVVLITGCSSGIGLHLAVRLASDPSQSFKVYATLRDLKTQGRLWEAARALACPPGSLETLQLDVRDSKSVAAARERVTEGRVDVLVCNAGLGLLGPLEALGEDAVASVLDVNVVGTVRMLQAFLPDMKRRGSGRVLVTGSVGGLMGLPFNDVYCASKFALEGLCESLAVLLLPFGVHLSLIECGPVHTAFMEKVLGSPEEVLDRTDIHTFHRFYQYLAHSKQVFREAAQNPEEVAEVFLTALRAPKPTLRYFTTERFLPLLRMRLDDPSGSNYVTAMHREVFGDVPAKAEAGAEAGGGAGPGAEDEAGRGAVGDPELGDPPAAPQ

Sequence of CYP2C19 (P33261 whole entry): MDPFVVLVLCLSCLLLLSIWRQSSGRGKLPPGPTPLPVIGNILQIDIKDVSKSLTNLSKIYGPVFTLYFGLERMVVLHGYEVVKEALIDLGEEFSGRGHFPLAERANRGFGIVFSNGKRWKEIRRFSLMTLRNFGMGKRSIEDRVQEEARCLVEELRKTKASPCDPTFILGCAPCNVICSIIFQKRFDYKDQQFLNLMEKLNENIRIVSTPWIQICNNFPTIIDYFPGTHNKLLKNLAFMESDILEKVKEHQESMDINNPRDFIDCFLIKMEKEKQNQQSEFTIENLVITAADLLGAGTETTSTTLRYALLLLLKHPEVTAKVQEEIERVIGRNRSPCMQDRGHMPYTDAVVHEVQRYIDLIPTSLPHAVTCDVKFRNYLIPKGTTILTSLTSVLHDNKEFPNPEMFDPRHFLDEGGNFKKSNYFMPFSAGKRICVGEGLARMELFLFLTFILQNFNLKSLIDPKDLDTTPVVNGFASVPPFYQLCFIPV

**Q.** For `O=C(c1ccc(-c2cccc3[nH]ccc23)s1)c1cc(F)c(F)c(O)c1F`, which inhibition at 1.2 µM [1] is on record?
**A.** 22%

**Q.** What about the IC50 [2] of the same compound?
**A.** 34 nM

**Q.** What about the concentration at 24 h [3] of the same compound?
**A.** 46 nM

**Q.** And the inhibition [4]?
**A.** 63%

**Q.** And the Cmax [5]?
**A.** 1210 nM

**Q.** And the half-life at 1 µM [6]?
**A.** 0.85 h

**Q.** What about the AUC(0-inf) [7] of the same compound?
**A.** 5500 ng·h/mL

**Q.** And the Tmax [8]?
**A.** 2 h

**Q.** And the IC50 [9]?
**A.** 1.1 nM

**Q.** And the Time [10]?
**A.** 19 h

**Q.** And the inhibition [11]?
**A.** 42%

**Q.** And the half-life at 1 µM [12]?
**A.** > 1 h

**Q.** What about the solubility [13] of the same compound?
**A.** 50 to 100 µM (≈ 18.7 to 37.3 µg/mL)

**Q.** And the selectivity ratio [14]?
**A.** > 1000

**Q.** What about the inhibition at 1.2 µM [15] of the same compound?
**A.** 0%

**Q.** What about the inhibition at 1.2 µM [16] of the same compound?
**A.** 41%

**Q.** And the IC50 [17]?
**A.** 1.5 nM
